Tests used:
[1] = test system: Severe acute respiratory syndrome coronavirus 2; assay: Inhibition of SARS-CoV-2 main protease expressed in expressed in BL21(DE3) Escherichia Coli […] by measuring ratio of K2/Ki by FRET assay
[2] = Inhibition of SARS-CoV-2 main protease expressed in expressed in BL21(DE3) Escherichia Coli […] by FRET assay; parameters: species or system Severe acute respiratory syndrome coronavirus 2

Structure (SMILES)	Ratio [1] [M⁻¹ s⁻¹]	EC50 [2] [µM]	Ki [2] [µM]
CC(C)C[C@H](NC(=O)OCc1ccccc1)C(=O)N[C@@H](CC1CCNC1=O)C(O)S(=O)(=O)O (stereo partly drawn)	40800	–	–
CC(C)(C)NC(=O)N[C@H](C(=O)N1C[C@H]2[C@@H]([C@H]1C(=O)NC(CC1CCC1)C(=O)C(N)=O)C2(C)C)C(C)(C)C (stereo partly drawn) [BOCEPREVIR]	–	1.31	1.18

From ChEMBL document CHEMBL4665729, “The SARS-CoV-2 main protease as drug target” (Bioorg Med Chem Lett, 2020)
